From PubChem BioAssay (NCI)
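Tested at 5 concentrations; 48 h exposure; 96-well plates; endpoints linearly interpolated, else capped at highest concentration. At the TGI there is no net growth.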

Legend:
Experiment in all cases: growth of human tumour cells (NCI), 48 h
786-0 renal = tested on: 786-0 renal
A498 renal = tested on: A498 renal
A549 NSCLC = tested on: A549 NSCLC
ACHN renal = tested on: ACHN renal
BT-549 breast = tested on: BT-549 breast
CAKI-1 renal = tested on: CAKI-1 renal
CCRF-CEM leukemia = tested on: CCRF-CEM leukemia
COLO 205 colon = tested on: COLO 205 colon
DU-145 prostate = tested on: DU-145 prostate
EKVX NSCLC = tested on: EKVX NSCLC
HCT-116 colon = tested on: HCT-116 colon
HCT-15 colon = tested on: HCT-15 colon
HL-60(TB) leukemia = tested on: HL-60(TB) leukemia
HOP-62 NSCLC = tested on: HOP-62 NSCLC
HOP-92 NSCLC = tested on: HOP-92 NSCLC
HS 578T breast = tested on: HS 578T breast
HT29 colon = tested on: HT29 colon
IGROV1 ovarian = tested on: IGROV1 ovarian
K-562 leukemia = tested on: K-562 leukemia
KM12 colon = tested on: KM12 colon
LOX IMVI melanoma = tested on: LOX IMVI melanoma
M14 melanoma = tested on: M14 melanoma
MALME-3M melanoma = tested on: MALME-3M melanoma
MDA-MB-231 breast = tested on: MDA-MB-231 breast
MDA-MB-435 = tested on: MDA-MB-435
MDA-N = tested on: MDA-N
MOLT-4 leukemia = tested on: MOLT-4 leukemia
NCI-H226 lung = tested on: NCI-H226 lung
NCI-H23 lung = tested on: NCI-H23 lung
NCI-H460 lung = tested on: NCI-H460 lung
NCI-H522 lung = tested on: NCI-H522 lung
NCI/ADR-RES ovarian = tested on: NCI/ADR-RES ovarian
OVCAR-3 ovarian = tested on: OVCAR-3 ovarian
OVCAR-4 ovarian = tested on: OVCAR-4 ovarian
OVCAR-5 ovarian = tested on: OVCAR-5 ovarian
OVCAR-8 ovarian = tested on: OVCAR-8 ovarian
PC-3 prostate = tested on: PC-3 prostate
RPMI-8226 leukemia = tested on: RPMI-8226 leukemia
RXF 393 renal = tested on: RXF 393 renal
SF-268 CNS = tested on: SF-268 CNS
SF-295 CNS = tested on: SF-295 CNS
SF-539 CNS = tested on: SF-539 CNS
SK-MEL-2 melanoma = tested on: SK-MEL-2 melanoma
SK-MEL-28 melanoma = tested on: SK-MEL-28 melanoma
SK-MEL-5 melanoma = tested on: SK-MEL-5 melanoma
SK-OV-3 ovarian = tested on: SK-OV-3 ovarian
SN12C renal = tested on: SN12C renal
SNB-19 CNS = tested on: SNB-19 CNS
SNB-75 CNS = tested on: SNB-75 CNS
SR leukemia = tested on: SR leukemia
SW-620 colon = tested on: SW-620 colon
T-47D breast = tested on: T-47D breast
TK-10 renal = tested on: TK-10 renal
U251 CNS = tested on: U251 CNS
UACC-257 melanoma = tested on: UACC-257 melanoma
UO-31 renal = tested on: UO-31 renal
HCC-2998 colon = tested on: HCC-2998 colon
MCF7 breast = tested on: MCF7 breast
UACC-62 melanoma = tested on: UACC-62 melanoma

For CCCCN(CC)c1nc(C)nc2c1c(C)c(C)n2-c1c(C)cc(C)cc1C, which TGI (786-0 renal) is on record?
The TGI was 30.5 µM.

What about the TGI (A498 renal) of the same compound?
The TGI was 31.3 µM.

And the TGI (A549 NSCLC)?
Its TGI is 30.2 µM.

What about the TGI (ACHN renal) of the same compound?
The TGI was 28.1 µM.

What about the TGI (BT-549 breast) of the same compound?
Its TGI is 34.3 µM.

What about the TGI (CAKI-1 renal) of the same compound?
The TGI was 30.2 µM.

What about the TGI (CCRF-CEM leukemia) of the same compound?
The TGI was 32.7 µM.

And the TGI (COLO 205 colon)?
The TGI was 32.6 µM.

And the TGI (DU-145 prostate)?
The TGI was 30.2 µM.

What about the TGI (EKVX NSCLC) of the same compound?
The TGI was 27.5 µM.

And the TGI (HCT-116 colon)?
Its TGI is 23.4 µM.

And the TGI (HCT-15 colon)?
The TGI was 27.6 µM.

What about the TGI (HL-60(TB) leukemia) of the same compound?
Its TGI is 19.3 µM.

And the TGI (HOP-62 NSCLC)?
The TGI was 32.9 µM.

And the TGI (HOP-92 NSCLC)?
The TGI was 21.5 µM.

What about the TGI (HS 578T breast) of the same compound?
Its TGI is 38 µM.

What about the TGI (HT29 colon) of the same compound?
Its TGI is 22.6 µM.

And the TGI (IGROV1 ovarian)?
The TGI was 29.2 µM.

What about the TGI (K-562 leukemia) of the same compound?
Its TGI is 29.8 µM.

And the TGI (KM12 colon)?
Its TGI is 36.3 µM.

What about the TGI (LOX IMVI melanoma) of the same compound?
Its TGI is 30.4 µM.

And the TGI (M14 melanoma)?
The TGI was 35.6 µM.

And the TGI (MALME-3M melanoma)?
The TGI was 29.6 µM.

What about the TGI (MDA-MB-231 breast) of the same compound?
The TGI was 29.1 µM.

And the TGI (MDA-MB-435)?
Its TGI is 33.3 µM.

And the TGI (MDA-N)?
The TGI was 38.6 µM.

And the TGI (MOLT-4 leukemia)?
The TGI was 30.1 µM.

What about the TGI (NCI-H226 lung) of the same compound?
The TGI was 30.1 µM.

What about the TGI (NCI-H23 lung) of the same compound?
The TGI was 28.2 µM.

And the TGI (NCI-H460 lung)?
The TGI was 27.5 µM.

What about the TGI (NCI-H522 lung) of the same compound?
The TGI was 25.7 µM.

And the TGI (NCI/ADR-RES ovarian)?
Its TGI is 27.6 µM.

And the TGI (OVCAR-3 ovarian)?
Its TGI is 26.6 µM.

And the TGI (OVCAR-4 ovarian)?
The TGI was 37.9 µM.

What about the TGI (OVCAR-5 ovarian) of the same compound?
The TGI was 28.8 µM.

What about the TGI (OVCAR-8 ovarian) of the same compound?
Its TGI is 28.5 µM.

And the TGI (PC-3 prostate)?
Its TGI is 26.6 µM.

And the TGI (RPMI-8226 leukemia)?
The TGI was 30.1 µM.

What about the TGI (RXF 393 renal) of the same compound?
The TGI was 19.7 µM.

And the TGI (SF-268 CNS)?
The TGI was 31.8 µM.

What about the TGI (SF-295 CNS) of the same compound?
The TGI was 28 µM.

And the TGI (SF-539 CNS)?
The TGI was 6.46 µM.

And the TGI (SK-MEL-2 melanoma)?
The TGI was 25.7 µM.

What about the TGI (SK-MEL-28 melanoma) of the same compound?
The TGI was 31.5 µM.

What about the TGI (SK-MEL-5 melanoma) of the same compound?
Its TGI is 17.6 µM.

And the TGI (SK-OV-3 ovarian)?
The TGI was 32.9 µM.

And the TGI (SN12C renal)?
The TGI was 40.9 µM.

And the TGI (SNB-19 CNS)?
The TGI was 33.3 µM.

What about the TGI (SNB-75 CNS) of the same compound?
Its TGI is 27.4 µM.

And the TGI (SR leukemia)?
Its TGI is 31.9 µM.

What about the TGI (SW-620 colon) of the same compound?
The TGI was 33.4 µM.

And the TGI (T-47D breast)?
Its TGI is 25.4 µM.

What about the TGI (TK-10 renal) of the same compound?
The TGI was 31.1 µM.

And the TGI (U251 CNS)?
Its TGI is 23.9 µM.

And the TGI (UACC-257 melanoma)?
The TGI was 26.9 µM.

What about the TGI (UO-31 renal) of the same compound?
Its TGI is 28.9 µM.

Which TGI (786-0 renal) does the source give for C/C(=N\NC(=S)NC(C)C)c1nc2ncccc2[nH]1 here?
Its TGI is over 100 µM.

And the TGI (A498 renal)?
Its TGI is over 100 µM.

What about the TGI (A549 NSCLC) of the same compound?
Its TGI is over 100 µM.

And the TGI (ACHN renal)?
Its TGI is over 100 µM.

What about the TGI (BT-549 breast) of the same compound?
Its TGI is 58.9 µM.

And the TGI (CAKI-1 renal)?
The TGI was over 89.1 µM.

What about the TGI (CCRF-CEM leukemia) of the same compound?
The TGI was over 100 µM.

What about the TGI (COLO 205 colon) of the same compound?
The TGI was over 100 µM.

And the TGI (DU-145 prostate)?
The TGI was over 100 µM.

And the TGI (EKVX NSCLC)?
The TGI was over 69.7 µM.

And the TGI (HCC-2998 colon)?
Its TGI is over 100 µM.

What about the TGI (HCT-116 colon) of the same compound?
Its TGI is over 100 µM.

What about the TGI (HCT-15 colon) of the same compound?
The TGI was over 100 µM.

And the TGI (HL-60(TB) leukemia)?
The TGI was over 100 µM.

What about the TGI (HOP-62 NSCLC) of the same compound?
The TGI was over 64.2 µM.

And the TGI (HOP-92 NSCLC)?
Its TGI is 84.3 µM.

What about the TGI (HS 578T breast) of the same compound?
The TGI was 69.7 µM.

And the TGI (HT29 colon)?
The TGI was over 100 µM.

And the TGI (IGROV1 ovarian)?
The TGI was over 80.1 µM.

What about the TGI (K-562 leukemia) of the same compound?
Its TGI is over 100 µM.

And the TGI (KM12 colon)?
Its TGI is over 100 µM.

And the TGI (LOX IMVI melanoma)?
Its TGI is over 100 µM.

What about the TGI (M14 melanoma) of the same compound?
Its TGI is over 100 µM.

What about the TGI (MALME-3M melanoma) of the same compound?
The TGI was over 100 µM.

And the TGI (MCF7 breast)?
The TGI was over 100 µM.

What about the TGI (MDA-MB-231 breast) of the same compound?
The TGI was over 100 µM.

And the TGI (MDA-N)?
The TGI was over 100 µM.

What about the TGI (MOLT-4 leukemia) of the same compound?
The TGI was over 100 µM.

And the TGI (NCI-H226 lung)?
The TGI was 51.3 µM.

And the TGI (NCI-H460 lung)?
The TGI was over 100 µM.

And the TGI (NCI-H522 lung)?
Its TGI is over 76.3 µM.

And the TGI (NCI/ADR-RES ovarian)?
Its TGI is over 100 µM.

What about the TGI (OVCAR-3 ovarian) of the same compound?
Its TGI is over 100 µM.

And the TGI (OVCAR-4 ovarian)?
Its TGI is over 100 µM.

What about the TGI (OVCAR-5 ovarian) of the same compound?
Its TGI is over 100 µM.

And the TGI (OVCAR-8 ovarian)?
Its TGI is 52.7 µM.

And the TGI (PC-3 prostate)?
The TGI was over 100 µM.

What about the TGI (RPMI-8226 leukemia) of the same compound?
The TGI was over 100 µM.

What about the TGI (RXF 393 renal) of the same compound?
The TGI was over 100 µM.

And the TGI (SF-268 CNS)?
The TGI was over 100 µM.

What about the TGI (SF-295 CNS) of the same compound?
The TGI was 35.6 µM.

What about the TGI (SF-539 CNS) of the same compound?
Its TGI is over 85 µM.

And the TGI (SK-MEL-2 melanoma)?
Its TGI is over 77.6 µM.

What about the TGI (SK-MEL-28 melanoma) of the same compound?
The TGI was over 100 µM.

What about the TGI (SK-MEL-5 melanoma) of the same compound?
The TGI was over 100 µM.

And the TGI (SK-OV-3 ovarian)?
The TGI was 33.4 µM.

What about the TGI (SN12C renal) of the same compound?
The TGI was over 100 µM.

What about the TGI (SNB-19 CNS) of the same compound?
Its TGI is over 91.6 µM.

And the TGI (SNB-75 CNS)?
The TGI was over 66.7 µM.

What about the TGI (SR leukemia) of the same compound?
The TGI was over 100 µM.

And the TGI (SW-620 colon)?
Its TGI is over 100 µM.

And the TGI (T-47D breast)?
Its TGI is over 95.1 µM.

What about the TGI (TK-10 renal) of the same compound?
Its TGI is 73.8 µM.

What about the TGI (U251 CNS) of the same compound?
The TGI was over 100 µM.

What about the TGI (UACC-257 melanoma) of the same compound?
Its TGI is over 100 µM.

What about the TGI (UACC-62 melanoma) of the same compound?
Its TGI is 98.7 µM.

And the TGI (UO-31 renal)?
Its TGI is 44.9 µM.
